Reference: patent US20250366503A1, “NOVEL GLUCOPYRANOSIDE COMPOSITIONS FOR SWEETNESS ENHANCEMENT” (International Flavors & Fragrances Inc., priority 2022, published 2025)

Assay: Sweetness enhancement of sucrose by isolated compounds (flavor profile)
Conditions: for Flavor Profile: 6% sucrose in water; for Enhancement of the sweetness of sweetness modifiers: general statement; for Sweetness and sugary mouthfeel enhancement: summary statement
Experimental: A sucrose solution (6%) was prepared in water and used as the base solution. Sucrose solutions of lipedoside B-IIIb, ligurobustoside E, ligurobustoside C, CPD5, ligurobustoside K ligurobustoside I and CPD6 were each prepared at 0.1-2 ppm. Flavor profiles of the sucrose solutions with added lipedoside B-IIIb, ligurobustoside E, ligurobustoside C, CPD5, ligurobustoside K and CPD6 are reported in the following: […]

Compound | Flavor Profile (compound 0.1 ppm) | Flavor Profile (compound 1 ppm) | Enhancement of the sweetness of sweetness modifiers | Sweetness and sugary mouthfeel enhancement | Flavor Profile (compound 2 ppm)
CC(C)=CCC/C(C)=C/CO[C@@H]1O[C@H](COC(=O)/C=C/c2ccc(O)cc2)[C@@H](O)[C@H](O[C@@H]2O[C@@H](C)[C@H](O)[C@@H](O)[C@H]2O)[C@H]1O [Ligurobustoside E, ligurobustoside E] | Sweetness enhancement, lingering sweetness | Upfront sweetness, lingering sweetness | enhance the sweetness of sweetness modifiers without undesirable off-notes | particularly strong sweetness and sugary mouthfeel enhancement | 
ligurobustoside K |  |  |  | mild sweetness and sugary mouthfeel enhancement | Weak sweetness and mouthfeel enhancement
C/C(=C\CO[C@@H]1O[C@H](CO)[C@@H](OC(=O)/C=C/c2ccc(O)cc2)[C@H](O[C@@H]2O[C@@H](C)[C@H](O)[C@@H](O)[C@H]2O)[C@H]1O)C/C=C\C(C)(C)O [ligurobustoside I] |  |  |  | mild sweetness and sugary mouthfeel enhancement | Weak sweetness and mouthfeel enhancement
CC(C)=CCC/C(C)=C/CO[C@@H]1O[C@H](CO)[C@@H](OC(=O)/C=C/c2ccc(O)cc2)[C@H](O[C@@H]2O[C@@H](C)[C@H](O)[C@@H](O)[C@H]2O)[C@H]1O [Ligurobustoside C, ligurobustoside C] |  |  | enhance the sweetness of sweetness modifiers without undesirable off-notes |  | Some upfront sweetness and mouthfeel enhancement
CC(C)=CC(=O)/C=C(\C)CCO[C@@H]1O[C@H](CO)[C@@H](OC(=O)/C=C/c2ccc(O)cc2)[C@H](O[C@@H]2O[C@@H](C)[C@H](O)[C@@H](O)[C@H]2O)[C@H]1O [CPD6, (2R,3R,4R,5R,6R)-6-(((E)-3,7-dimethyl-5-oxoocta-3,6-dien-1-yl)oxy)-5-hydroxy-2-(hydroxymethyl)-4-(((2S,3R,4R,5R,6S)-3,4,5-trihydroxy-6-methyltetrahydro-2H-pyran-2-yl)oxy)tetrahydro-2H-pyran-3-yl (E)-3-(4-hydroxyphenyl)acrylate] |  |  |  | mild sweetness and sugary mouthfeel enhancement | Weak lingering sweetness and mouthfeel enhancement
C=CC(C)(CCC=C(C)C)O[C@@H]1O[C@H](CO)[C@@H](OC(=O)/C=C/c2ccc(O)c(O)c2)[C@H](O[C@@H]2O[C@@H](C)[C@H](O)[C@@H](O)[C@H]2O)[C@H]1O (stereo partly drawn) [CPD5, (2R,3R,4R,5R,6S)-6-((3,7-dimethylocta-1,6-dien-3-yl)oxy)-5-hydroxy-2-(hydroxymethyl)-4-(((2S,3R,4R,5R,6S)-3,4,5-trihydroxy-6-methyltetrahydro-2H-pyran-2-yl)oxy)tetrahydro-2H-pyran-3-yl (E)-3-(3,4-dihydroxyphenyl)acrylate] |  |  | enhance the sweetness of sweetness modifiers without undesirable off-notes |  | Moderate sweetness and mouthfeel enhancement
lipedoside B-IIIb | Slight sweetness enhancement, lingering sweetness | Sweetness enhancement, lingering sweetness | enhance the sweetness of sweetness modifiers without undesirable off-notes | particularly strong sweetness and sugary mouthfeel enhancement | Strong upfront sweetness and sugary mouthfeel
